The source of these data is ChEMBL document CHEMBL1133864, “Identification of a novel family of nucleosides that specifically inhibit HIV-1 reverse transcriptase” (Bioorg Med Chem Lett, 2001).

Assay [1] relates to Human immunodeficiency virus 2. As to the kind of experiment: Effective concentration required to inhibit HIV-2 induced cytopathicity by 50% in CEM cells. It is filed as functional, organism-based. As to conditions: Human immunodeficiency virus 2, CCRF-CEM. On the technique in general: Cytopathic effects are the visible damage that an infection or toxin causes in cultured cells.

Assay [2] relates to CCRF-CEM. Nature of the assay: Concentration required to reduce the viability of mock-infected CEM cells by 50%. The assay is classed as functional. The following applies: Homo sapiens.
Assay [3] addresses T1, Human immunodeficiency virus type 1 reverse transcriptase (Human immunodeficiency virus 1, UniProt Q72547). Nature of the assay: The compound was evaluated for inhibition of HIV-1 wild types […]-Lys recombinant reverse transcriptase.
Assay [4] concerns the target T1, Human immunodeficiency virus type 1 reverse transcriptase. Nature of the assay: The compound was evaluated for inhibition of HIV-1 mutant […]-Lys recombinant reverse transcriptase.

As for `Cc1cn([C@H]2C[C@H](O[Si](C)(C)C(C)(C)C)[C@@H](CO[Si](C)(C)C(C)(C)C)O2)c(=O)n(CC(=O)O)c1=O`, the EC50 in assay [1] is above 10 µM. In assay [2], the 50% cytotoxic concentration (CC50) came out at 20.3 µM.

`Cc1cn(C2CCC(CO[Si](C)(C)C(C)(C)C)O2)c(=O)n(CC(=O)OCc2ccccc2)c1=O` (stereo not drawn) registered an EC50 in assay [1] above 50 µM. For the same compound, in assay [2], the CC50 is above 250 µM.

For the compound `Cc1cn([C@@H]2O[C@H](CO[Si](C)(C)C(C)(C)C)[C@@H](O)[C@H]2O[Si](C)(C)C(C)(C)C)c(=O)n(CC(=O)O)c1=O`, the IC50 in assay [3] came out at 138 µM; in assay [4], 158 µM. This compound came in with an EC50 in assay [1] above 10 µM. For the same compound, half-maximal cytotoxicity in assay [2] (CC50) was put at 23 µM.

`Cc1cn([C@@H]2O[C@H](CO[Si](C)(C)C(C)(C)C)[C@@H](O[Si](C)(C)C(C)(C)C)[C@H]2O[Si](C)(C)C(C)(C)C)c(=O)n(CC(=O)OCc2ccccc2)c1=O` had a concentration giving a half-maximal response (EC50) in assay [1] above 50 µM. In assay [2], this compound returned a CC50 of 102 µM.

As for `Cc1cn([C@@H]2O[C@H](CO[Si](C)(C)C(C)(C)C)C3(OS(=O)(=O)C=C3N)[C@H]2O[Si](C)(C)C(C)(C)C)c(=O)[nH]c1=O` (stereo partly drawn), the figures for the concentration for half-maximal inhibition (IC50) in assay [3] and in assay [4] were 3.6 µM and above 500 µM, respectively. This compound also came in with an EC50 in assay [1] above 20 µM. The compound also returned a 50% cytotoxic concentration (CC50) in assay [2] of 14 µM.

For the compound `Cc1cn(C2OC(CO[Si](C)(C)C(C)(C)C)CC2O[Si](C)(C)C(C)(C)C)c(=O)n(CC(=O)OCc2ccccc2)c1=O` (stereo not drawn), in assay [1], the EC50 was above 2 µM. Further, the CC50 in assay [2] came out at 21.6 µM.

`Cc1cn(C2O[C@H](CO)[C@@H](O)[C@H]2O)c(=O)n(CC(=O)O)c1=O` (stereo partly drawn) displayed an EC50 in assay [1] above 250 µM. This compound displayed a CC50 in assay [2] above 250 µM.

The compound `Cc1cn(C2O[C@H](CO[Si](C)(C)C(C)(C)C)[C@@H](O)[C@H]2O)c(=O)n(CC(=O)O)c1=O` (stereo partly drawn) had a concentration for a half-maximal effect (EC50) in assay [1] above 250 µM. Besides, the 50% cytotoxic concentration (CC50) in assay [2] is above 250 µM.

Turning to `Cc1cn([C@H]2C[C@H](N=[N+]=[N-])[C@@H](CO)O2)c(=O)[nH]c1=O` [ZIDOVUDINE], the EC50 in assay [1] turned out to be 0.004 µM. The compound further registered a 50% cytotoxic concentration (CC50) in assay [2] of 6 µM.

Regarding `Cc1cn([C@@H]2O[C@H](CO)[C@@H](O)[C@H]2O[Si](C)(C)C(C)(C)C)c(=O)n(CC(=O)O)c1=O`, in assay [1], the EC50 was above 250 µM. The compound further came in with a CC50 in assay [2] above 250 µM.

Turning to `Cc1cn([C@@H]2O[C@H](CO[Si](C)(C)C(C)(C)C)[C@@H](O)[C@H]2O[Si](C)(C)C(C)(C)C)c(=O)n(CC(=O)OCc2ccccc2)c1=O`, the 50% effective concentration (EC50) in assay [1] was above 10 µM. The same compound yielded a CC50 in assay [2] of 25.7 µM.

Take `Cc1cn(C2OC(CO[Si](C)(C)C(C)(C)C)CC2O[Si](C)(C)C(C)(C)C)c(=O)n(CC(=O)O)c1=O` (stereo not drawn): the values for the 50% inhibitory concentration (IC50) in assay [3] and in assay [4] were 33.8 µM and 47.4 µM, respectively. For the same compound, the EC50 in assay [1] is above 10 µM. The CC50 in assay [2] came to 20.7 µM.

`Cc1cn([C@@H]2O[C@H](CO[Si](C)(C)C(C)(C)C)[C@@H](O[Si](C)(C)C(C)(C)C)[C@H]2O)c(=O)n(CC(=O)OCc2ccccc2)c1=O` had an EC50 in assay [1] above 10 µM. In assay [2], it took 57.1 µM to reach half-maximal cytotoxicity (CC50).

For `Cc1cn([C@@H]2O[C@H](CO[Si](C)(C)C(C)(C)C)[C@@H](O[Si](C)(C)C(C)(C)C)[C@H]2O)c(=O)n(CC(=O)O)c1=O`, the figures for the IC50 in assay [3] and in assay [4] were 207 µM and 335 µM, respectively. The compound further returned a concentration for a half-maximal effect (EC50) in assay [1] above 10 µM. The compound further showed a CC50 in assay [2] of 29.3 µM.

In the case of `Cc1cn(C2CCC(CO[Si](C)(C)C(C)(C)C)O2)c(=O)n(CC(=O)O)c1=O` (stereo not drawn), in assay [1], the EC50 is above 250 µM. The 50% cytotoxic concentration (CC50) in assay [2] is above 250 µM.

The compound `Cc1cn([C@@H]2O[C@H](CO[Si](C)(C)C(C)(C)C)[C@@H](O[Si](C)(C)C(C)(C)C)[C@H]2O[Si](C)(C)C(C)(C)C)c(=O)n(CC(=O)O)c1=O` yielded an EC50 in assay [1] above 125 µM. The cytotoxic concentration (CC50) in assay [2] is above 125 µM.

In the case of `Cc1cn([C@H]2C[C@H](O[Si](C)(C)C(C)(C)C)[C@@H](CO[Si](C)(C)C(C)(C)C)O2)c(=O)n(CC(=O)OCc2ccccc2)c1=O`, in assay [1], the EC50 was above 10 µM. This compound yielded a CC50 in assay [2] of 56.4 µM.

As to `Cc1cn([C@@H]2O[C@H](CO)[C@@H](O)[C@H]2O[Si](C)(C)C(C)(C)C)c(=O)n(CC(=O)OCc2ccccc2)c1=O`, the EC50 in assay [1] was above 10 µM. In addition, in assay [2], half-maximal cytotoxicity (CC50) was put at 26 µM.

As for `Cc1cn(C2O[C@H](CO)[C@@H](O)[C@H]2O)c(=O)n(CC(=O)OCc2ccccc2)c1=O` (stereo partly drawn), the concentration giving a half-maximal response (EC50) in assay [1] was above 250 µM. In assay [2], this compound showed a cytotoxic concentration (CC50) above 250 µM.

Compound `Cc1cn(C2O[C@H](CO[Si](C)(C)C(C)(C)C)[C@@H](O)[C@H]2O)c(=O)n(CC(=O)OCc2ccccc2)c1=O` (stereo partly drawn) had an EC50 in assay [1] above 10 µM. The compound also yielded a half-maximal cytotoxic concentration (CC50) in assay [2] of 30 µM.

One may read the EC50 as the midpoint of the concentration-response curve. Low readings indicate greater potency, high ones weaker potency. A word on the CC50: it is the concentration giving 50% cytotoxicity. Low readings indicate greater toxicity to the cells, high ones lower toxicity to the cells. By IC50 is commonly meant the midpoint of a concentration-inhibition curve.
